Legend:
[1] = tested on: Nerve Growth Factor (NGF); assay: gene expression of Nerve Growth Factor (bladder); assay type: in vivo, rat
Excerpt: Bladder tonus is largely influenced by nerve cells located in the bladder wall and other vegetative nerve cells. The “Nerve Growth Factor” (NGF) is an indicator for the local activity of the nerve cells.

[2] = tested on: estrogen receptor of alpha-subtype; assay: gene expression of estrogen receptor alpha-subtype in the prostate of male castrated rat; assay type: in vivo
estrogen receptor-beta = assay: gene expression of estrogen receptor-beta in the prostate of male castrated rat; assay type: in vivo
estrogen receptor-alpha = assay: gene expression of estrogen receptor-alpha in the bladder of castrated rats; assay type: in vivo, rat
prostate = prostate regression / testosterone-induced prostate growth in castrated rats; assay type: in vivo, rat
Excerpt: (§1) The prostate regression induced by castration could be antagonized by testosterone in experiments with rats.

IGF1 = IGF1 gene expression in the prostate of castrated male rats; assay type: in vivo, rat
Excerpt: as §1

C[C@]12CC[C@@H]3c4ccc(O)cc4CC[C@H]3[C@@H]1CC[C@@H]2O [estradiol, 17β-estradiol]
gene expression of Nerve Growth Factor (NGF) [1]: observed under neither estradiol nor testosterone | gene expression of the estrogen receptor of alpha-subtype [2]: significantly inhibit | gene expression of the estrogen receptor-beta (estrogen receptor-beta): without having an effect | gene expression of the estrogen receptor-alpha (estrogen receptor-alpha): regulate down

C[C@]12CC[C@H]3[C@@H](CCC4=CC(=O)CC[C@@]43C)[C@@H]1CC[C@@H]2O [testosterone]
prostate regression induced by castration (prostate): antagonized | gene expression of Nerve Growth Factor (NGF) [1]: observed under neither estradiol nor testosterone | gene expression of the growth factor IGF1 (IGF1): regulated up

Reference: patent publication US20040176310A1, “Use of extracts and preparations from iris plants and tectorigenin as medicaments” (priority 2001, published 2004)
